In the supplement of paper PMC12076712 one finds pIC50 data, which are given here for three compounds.

Experiment in all cases: pIC50, kinobeads binding competition
One experiment addresses STK33 (UniProt Q9BYT3). The gist of the method: (§1)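 Jurkat cells were exposed alive to nine compound concentrations (top 30 μM, 1:4 steps) or vehicle for 60 min at 37 °C and then lysed. In a second format, nine concentrations (top 30 μM, 1:5 steps) were incubated for 60 min at 4 °C with Jurkat lysate or with a 1:1:1:1 lysate mix of HEK293, K-562, HepG2 and placenta. Proteins captured on Kinobeads were digested and quantified by TMT10 LC-MS/MS. pIC50 values were derived from logistic dose-response fits (R drc package) of fold changes relative to vehicle, in biological duplicates.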

For the next experiment, the target named is UniProt Q96GD4. The gist of the method: as §1
Chain of UniProt Q96GD4 (Q96GD4 whole entry): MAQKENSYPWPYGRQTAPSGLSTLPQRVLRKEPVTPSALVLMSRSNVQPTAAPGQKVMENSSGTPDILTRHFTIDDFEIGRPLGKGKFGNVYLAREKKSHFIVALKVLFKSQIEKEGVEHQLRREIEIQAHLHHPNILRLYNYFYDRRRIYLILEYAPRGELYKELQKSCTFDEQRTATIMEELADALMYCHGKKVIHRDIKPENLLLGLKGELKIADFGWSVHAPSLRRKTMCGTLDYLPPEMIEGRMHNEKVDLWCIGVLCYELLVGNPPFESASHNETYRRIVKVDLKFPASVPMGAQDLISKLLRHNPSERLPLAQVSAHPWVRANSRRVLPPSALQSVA
A further experiment has as its target UniProt P49841. The gist of the method:
as §1

The target of a further experiment is T1, UniProt Q13163.
T1 sequence (whole entry): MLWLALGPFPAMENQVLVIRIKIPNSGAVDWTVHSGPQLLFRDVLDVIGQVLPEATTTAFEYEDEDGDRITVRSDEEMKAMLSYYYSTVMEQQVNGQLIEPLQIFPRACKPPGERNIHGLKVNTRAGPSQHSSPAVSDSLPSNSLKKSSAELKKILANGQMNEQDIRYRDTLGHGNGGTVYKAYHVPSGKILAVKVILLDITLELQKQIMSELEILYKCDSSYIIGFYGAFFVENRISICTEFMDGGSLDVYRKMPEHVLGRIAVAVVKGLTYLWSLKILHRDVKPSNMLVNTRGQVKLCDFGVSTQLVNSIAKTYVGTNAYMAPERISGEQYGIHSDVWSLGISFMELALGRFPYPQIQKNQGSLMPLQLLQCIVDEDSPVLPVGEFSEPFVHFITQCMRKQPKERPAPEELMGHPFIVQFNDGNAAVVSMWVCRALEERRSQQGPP
The gist of the method: as §1

In the next experiment the target is PRKCB (UniProt P05771). The gist of the method: as §1
In the next experiment the target is T2, SGK3 (UniProt Q96BR1).
T2 sequence (whole entry): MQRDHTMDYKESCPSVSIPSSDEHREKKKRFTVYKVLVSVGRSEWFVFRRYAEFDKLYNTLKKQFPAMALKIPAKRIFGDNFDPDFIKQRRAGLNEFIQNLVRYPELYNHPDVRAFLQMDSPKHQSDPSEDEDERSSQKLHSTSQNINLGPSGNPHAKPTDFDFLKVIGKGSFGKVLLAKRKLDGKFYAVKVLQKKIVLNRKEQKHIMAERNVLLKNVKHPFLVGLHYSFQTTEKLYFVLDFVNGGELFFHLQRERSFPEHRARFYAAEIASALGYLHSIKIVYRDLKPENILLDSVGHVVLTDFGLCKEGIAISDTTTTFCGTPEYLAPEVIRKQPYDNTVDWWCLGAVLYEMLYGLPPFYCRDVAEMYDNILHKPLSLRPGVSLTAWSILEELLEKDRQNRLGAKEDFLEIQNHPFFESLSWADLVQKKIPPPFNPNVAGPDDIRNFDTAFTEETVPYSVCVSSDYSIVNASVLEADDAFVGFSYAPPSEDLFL
The gist of the method:
as §1

In a further experiment the target is CDK8 (UniProt P49336). The gist of the method: as §1
Chain of CDK8 (P49336 whole entry): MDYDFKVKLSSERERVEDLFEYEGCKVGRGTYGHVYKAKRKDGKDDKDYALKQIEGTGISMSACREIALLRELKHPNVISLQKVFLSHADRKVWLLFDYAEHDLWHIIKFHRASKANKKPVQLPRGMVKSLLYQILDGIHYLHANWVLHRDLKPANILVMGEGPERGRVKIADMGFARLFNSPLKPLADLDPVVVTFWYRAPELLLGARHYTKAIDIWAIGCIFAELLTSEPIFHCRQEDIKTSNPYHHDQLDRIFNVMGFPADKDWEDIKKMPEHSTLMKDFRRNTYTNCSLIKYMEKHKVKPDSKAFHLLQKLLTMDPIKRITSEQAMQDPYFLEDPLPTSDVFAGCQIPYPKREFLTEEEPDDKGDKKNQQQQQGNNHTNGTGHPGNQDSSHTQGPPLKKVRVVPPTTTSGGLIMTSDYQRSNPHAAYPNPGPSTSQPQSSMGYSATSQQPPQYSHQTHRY
In another experiment the target is T3, NLK (UniProt Q9UBE8).
T3 sequence (whole entry): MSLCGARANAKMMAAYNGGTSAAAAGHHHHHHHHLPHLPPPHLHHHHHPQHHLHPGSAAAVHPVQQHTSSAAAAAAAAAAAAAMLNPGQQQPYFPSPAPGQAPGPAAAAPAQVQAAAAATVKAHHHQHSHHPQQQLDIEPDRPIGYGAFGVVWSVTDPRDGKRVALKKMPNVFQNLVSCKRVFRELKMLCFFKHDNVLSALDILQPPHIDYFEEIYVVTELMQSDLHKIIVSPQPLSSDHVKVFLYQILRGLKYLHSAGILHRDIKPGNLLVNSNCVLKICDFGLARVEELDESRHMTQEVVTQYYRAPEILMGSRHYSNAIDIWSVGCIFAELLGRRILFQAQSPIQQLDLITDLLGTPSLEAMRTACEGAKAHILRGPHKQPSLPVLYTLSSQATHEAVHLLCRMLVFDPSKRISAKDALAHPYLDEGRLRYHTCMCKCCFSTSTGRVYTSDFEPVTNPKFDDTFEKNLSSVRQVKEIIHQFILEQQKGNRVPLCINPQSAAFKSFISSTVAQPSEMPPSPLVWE
The gist of the method: as §1

The target in another experiment is UniProt Q13233. The gist of the method:
as §1

In the next experiment the target is UniProt Q9Y2I7. The gist of the method:
as §1

Another experiment has as its target TESK1 (UniProt Q15569). The gist of the method: as §1
The target in a further experiment is UniProt Q9NYV4. The gist of the method: as §1
Another experiment concerns the target UniProt P17612. The gist of the method:
as §1

The next experiment addresses T4, ICK (UniProt Q9UPZ9).
T4 sequence (whole entry): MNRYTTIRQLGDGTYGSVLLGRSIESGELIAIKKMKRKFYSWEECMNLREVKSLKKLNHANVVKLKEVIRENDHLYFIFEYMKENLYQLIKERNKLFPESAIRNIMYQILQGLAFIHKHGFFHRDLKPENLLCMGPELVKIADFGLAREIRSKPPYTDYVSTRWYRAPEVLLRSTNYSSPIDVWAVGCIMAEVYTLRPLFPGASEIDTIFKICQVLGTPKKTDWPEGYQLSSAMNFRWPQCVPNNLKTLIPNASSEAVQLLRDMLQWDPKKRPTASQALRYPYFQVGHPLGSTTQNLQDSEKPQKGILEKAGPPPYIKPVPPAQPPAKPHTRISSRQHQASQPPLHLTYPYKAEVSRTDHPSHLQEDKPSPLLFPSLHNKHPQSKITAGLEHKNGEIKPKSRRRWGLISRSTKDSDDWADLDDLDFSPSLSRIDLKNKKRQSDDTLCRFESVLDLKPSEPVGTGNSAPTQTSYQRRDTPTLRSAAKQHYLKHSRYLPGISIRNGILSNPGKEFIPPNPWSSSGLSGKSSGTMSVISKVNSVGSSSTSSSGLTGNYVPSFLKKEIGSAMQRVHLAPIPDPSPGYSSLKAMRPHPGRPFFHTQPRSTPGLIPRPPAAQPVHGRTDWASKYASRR
The gist of the method:
as §1

Chain of STK33 (Q9BYT3 whole entry, looked up): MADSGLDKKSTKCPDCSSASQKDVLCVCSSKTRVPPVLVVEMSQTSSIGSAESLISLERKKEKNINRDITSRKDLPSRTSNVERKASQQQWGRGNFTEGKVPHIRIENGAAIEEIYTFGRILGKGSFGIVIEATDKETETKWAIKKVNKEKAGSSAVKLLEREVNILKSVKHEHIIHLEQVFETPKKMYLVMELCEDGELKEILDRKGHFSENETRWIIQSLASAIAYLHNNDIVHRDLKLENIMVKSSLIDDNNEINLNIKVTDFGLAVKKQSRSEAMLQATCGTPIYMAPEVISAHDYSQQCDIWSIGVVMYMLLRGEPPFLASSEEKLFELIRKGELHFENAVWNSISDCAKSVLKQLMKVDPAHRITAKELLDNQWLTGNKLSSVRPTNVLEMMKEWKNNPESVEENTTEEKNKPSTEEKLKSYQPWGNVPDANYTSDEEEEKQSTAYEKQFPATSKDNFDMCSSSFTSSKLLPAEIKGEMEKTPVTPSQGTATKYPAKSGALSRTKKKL
Chain of UniProt Q13233 (Q13233 whole entry): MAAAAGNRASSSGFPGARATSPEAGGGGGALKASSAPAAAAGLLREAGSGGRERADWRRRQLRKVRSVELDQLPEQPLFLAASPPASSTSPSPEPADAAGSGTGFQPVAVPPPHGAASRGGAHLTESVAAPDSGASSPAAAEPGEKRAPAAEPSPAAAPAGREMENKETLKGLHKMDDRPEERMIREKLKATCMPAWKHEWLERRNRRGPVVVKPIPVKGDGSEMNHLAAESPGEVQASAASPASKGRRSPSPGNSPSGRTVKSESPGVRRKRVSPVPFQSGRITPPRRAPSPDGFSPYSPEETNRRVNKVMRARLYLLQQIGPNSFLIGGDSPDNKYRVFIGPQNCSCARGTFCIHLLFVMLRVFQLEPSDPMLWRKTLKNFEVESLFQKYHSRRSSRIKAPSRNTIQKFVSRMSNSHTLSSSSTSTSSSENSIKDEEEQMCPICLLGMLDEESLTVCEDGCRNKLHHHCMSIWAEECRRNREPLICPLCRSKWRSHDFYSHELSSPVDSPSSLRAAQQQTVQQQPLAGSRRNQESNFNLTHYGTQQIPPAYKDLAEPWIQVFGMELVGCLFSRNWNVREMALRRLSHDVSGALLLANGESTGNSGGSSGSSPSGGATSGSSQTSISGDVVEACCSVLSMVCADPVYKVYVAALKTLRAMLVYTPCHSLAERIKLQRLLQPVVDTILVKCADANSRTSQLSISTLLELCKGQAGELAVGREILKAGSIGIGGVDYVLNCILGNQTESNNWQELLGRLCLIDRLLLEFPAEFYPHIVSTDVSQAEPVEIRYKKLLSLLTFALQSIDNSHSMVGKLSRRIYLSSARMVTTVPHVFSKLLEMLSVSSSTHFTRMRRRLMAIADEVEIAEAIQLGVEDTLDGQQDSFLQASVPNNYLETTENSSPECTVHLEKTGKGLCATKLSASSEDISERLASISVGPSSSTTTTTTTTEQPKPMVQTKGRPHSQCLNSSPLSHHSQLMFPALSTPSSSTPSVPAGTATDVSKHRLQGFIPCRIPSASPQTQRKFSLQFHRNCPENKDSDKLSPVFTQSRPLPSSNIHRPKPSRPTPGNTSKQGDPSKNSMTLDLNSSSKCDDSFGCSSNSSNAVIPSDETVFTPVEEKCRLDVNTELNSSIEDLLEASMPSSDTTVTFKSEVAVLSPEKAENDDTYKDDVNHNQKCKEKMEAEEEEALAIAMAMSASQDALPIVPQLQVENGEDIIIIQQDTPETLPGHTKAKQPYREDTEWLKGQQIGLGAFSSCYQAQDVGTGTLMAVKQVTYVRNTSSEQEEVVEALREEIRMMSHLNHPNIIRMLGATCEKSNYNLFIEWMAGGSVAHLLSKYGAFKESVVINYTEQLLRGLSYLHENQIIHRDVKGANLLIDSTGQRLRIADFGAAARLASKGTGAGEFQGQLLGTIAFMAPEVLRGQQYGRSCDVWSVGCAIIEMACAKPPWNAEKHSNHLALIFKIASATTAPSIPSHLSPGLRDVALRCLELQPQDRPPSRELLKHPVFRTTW
Chain of UniProt Q9Y2I7 (Q9Y2I7 whole entry): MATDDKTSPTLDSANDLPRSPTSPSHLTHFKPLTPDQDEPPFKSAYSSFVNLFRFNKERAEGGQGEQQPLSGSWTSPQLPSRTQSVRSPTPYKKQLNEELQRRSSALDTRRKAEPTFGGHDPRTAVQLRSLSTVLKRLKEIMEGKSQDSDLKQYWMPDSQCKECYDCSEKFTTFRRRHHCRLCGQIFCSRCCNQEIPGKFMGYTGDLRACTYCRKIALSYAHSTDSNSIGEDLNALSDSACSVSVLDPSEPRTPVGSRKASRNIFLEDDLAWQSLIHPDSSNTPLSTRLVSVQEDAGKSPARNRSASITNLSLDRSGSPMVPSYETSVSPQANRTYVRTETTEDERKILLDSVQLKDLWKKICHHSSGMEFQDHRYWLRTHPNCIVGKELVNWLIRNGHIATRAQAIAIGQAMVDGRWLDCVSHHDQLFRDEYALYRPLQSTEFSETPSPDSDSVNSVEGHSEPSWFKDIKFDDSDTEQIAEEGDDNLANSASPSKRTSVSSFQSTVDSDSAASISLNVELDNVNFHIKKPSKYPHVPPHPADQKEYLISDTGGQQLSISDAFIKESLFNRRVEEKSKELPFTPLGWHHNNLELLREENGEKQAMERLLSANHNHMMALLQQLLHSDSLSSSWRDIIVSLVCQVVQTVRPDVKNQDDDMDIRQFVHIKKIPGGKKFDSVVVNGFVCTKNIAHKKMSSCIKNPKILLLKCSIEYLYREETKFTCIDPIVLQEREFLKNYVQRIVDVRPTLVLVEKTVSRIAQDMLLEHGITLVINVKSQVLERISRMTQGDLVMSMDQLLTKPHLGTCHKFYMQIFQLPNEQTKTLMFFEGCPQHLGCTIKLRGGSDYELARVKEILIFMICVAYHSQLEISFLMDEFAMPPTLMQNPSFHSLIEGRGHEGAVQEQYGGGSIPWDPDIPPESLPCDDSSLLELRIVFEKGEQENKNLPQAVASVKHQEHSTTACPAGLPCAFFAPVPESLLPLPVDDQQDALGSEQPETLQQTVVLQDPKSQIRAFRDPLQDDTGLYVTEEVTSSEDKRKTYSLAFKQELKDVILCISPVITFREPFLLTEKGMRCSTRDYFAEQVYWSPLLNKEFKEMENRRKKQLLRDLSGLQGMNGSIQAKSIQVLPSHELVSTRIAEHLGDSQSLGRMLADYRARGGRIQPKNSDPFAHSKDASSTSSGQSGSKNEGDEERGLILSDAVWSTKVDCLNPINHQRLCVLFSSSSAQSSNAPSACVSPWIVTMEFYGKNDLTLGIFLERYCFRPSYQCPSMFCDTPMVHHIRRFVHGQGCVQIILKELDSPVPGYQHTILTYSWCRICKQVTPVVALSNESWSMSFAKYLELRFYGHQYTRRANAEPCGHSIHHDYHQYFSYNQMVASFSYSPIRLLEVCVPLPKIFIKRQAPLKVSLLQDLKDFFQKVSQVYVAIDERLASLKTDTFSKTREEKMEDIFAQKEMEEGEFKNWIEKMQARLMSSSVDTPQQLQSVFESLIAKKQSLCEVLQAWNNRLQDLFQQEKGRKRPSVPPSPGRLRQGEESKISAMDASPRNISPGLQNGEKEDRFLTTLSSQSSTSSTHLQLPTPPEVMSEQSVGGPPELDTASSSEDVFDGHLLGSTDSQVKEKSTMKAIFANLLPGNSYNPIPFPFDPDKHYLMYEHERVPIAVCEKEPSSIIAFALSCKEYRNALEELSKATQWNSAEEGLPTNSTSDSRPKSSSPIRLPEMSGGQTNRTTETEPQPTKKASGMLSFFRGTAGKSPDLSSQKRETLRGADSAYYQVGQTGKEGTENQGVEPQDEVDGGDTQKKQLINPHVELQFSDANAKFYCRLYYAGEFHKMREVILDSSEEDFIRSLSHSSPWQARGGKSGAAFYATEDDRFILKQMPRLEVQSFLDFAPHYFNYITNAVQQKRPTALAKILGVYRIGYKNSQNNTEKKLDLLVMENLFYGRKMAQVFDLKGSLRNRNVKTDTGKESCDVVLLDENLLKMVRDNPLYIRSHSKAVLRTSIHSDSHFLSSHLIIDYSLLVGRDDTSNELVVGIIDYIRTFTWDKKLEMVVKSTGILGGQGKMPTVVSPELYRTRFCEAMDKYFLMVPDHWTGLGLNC

Consider `C#CCNC(=O)c1cc(Nc2cc(C)[nH]n2)nc(N2CCN(Cc3ccc(S(=O)(=O)F)cc3)CC2)n1`, for which the pIC50 was below 4.52 at STK33 (cell material: Lysate mix); 5.94 on UniProt Q96GD4 (cell material: Lysate mix); below 4.52 at UniProt P49841 (cell material: Lysate mix); 4.64 at UniProt Q13163 (cell material: Lysate mix); below 4.52 at PRKCB (cell material: Lysate mix); 6.06 at SGK3 (cell material: Lysate mix). The pIC50 at CDK8 (cell material: Lysate mix), on NLK (cell material: Lysate mix), on UniProt Q13233 (cell material: Lysate mix), at UniProt Q9Y2I7 (cell material: Lysate mix), on TESK1 (cell material: Lysate mix) and at UniProt Q9NYV4 (cell material: Lysate mix) was below 4.52 throughout. The pIC50 at UniProt P17612 (cell material: Lysate mix) was below 4.52; on ICK (cell material: Lysate mix), 5.43.
For the compound `O=C(NCCNC(=O)c1cc(Nc2cc(C3CC3)[nH]n2)nc(N2CCN(Cc3ccc(S(=O)(=O)F)cc3)CC2)n1)OC1CC/C=C/CCC1` (stereo not drawn), the pIC50 at STK33 (cell material: Jurkat cells) was 5.76; on STK33 (cell material: Jurkat lysate) it was below 4.52; at STK33 (cell material: Lysate mix) it was below 4.52; at UniProt Q96GD4 (cell material: Jurkat cells), 6.39; on UniProt Q96GD4 (cell material: Lysate mix), 4.98; at UniProt P49841 (cell material: Jurkat cells) it was 4.84. In addition, the pIC50 at UniProt P49841 (cell material: Jurkat lysate) is below 4.52; on UniProt P49841 (cell material: Lysate mix) it was below 4.52; on UniProt Q13163 (cell material: Jurkat cells) it was 4.99; at UniProt Q13163 (cell material: Jurkat lysate) it was below 4.52; on UniProt Q13163 (cell material: Lysate mix), below 4.52; on PRKCB (cell material: Jurkat lysate) it was below 4.52. Also, the pIC50 is below 4.52 on PRKCB (cell material: Lysate mix); 6.44 on SGK3 (cell material: Jurkat cells); 4.92 on SGK3 (cell material: Jurkat lysate); 4.88 at SGK3 (cell material: Lysate mix); below 4.52 on CDK8 (cell material: Jurkat cells); below 4.52 on CDK8 (cell material: Jurkat lysate). Besides, the pIC50 on CDK8 (cell material: Lysate mix), on NLK (cell material: Jurkat cells), at NLK (cell material: Jurkat lysate), at NLK (cell material: Lysate mix), on UniProt Q13233 (cell material: Jurkat cells) and at UniProt Q13233 (cell material: Jurkat lysate) was below 4.52 each time. Also, the pIC50 at UniProt Q13233 (cell material: Lysate mix), on UniProt Q9Y2I7 (cell material: Jurkat cells), at UniProt Q9Y2I7 (cell material: Jurkat lysate), on UniProt Q9Y2I7 (cell material: Lysate mix), at TESK1 (cell material: Jurkat cells) and on TESK1 (cell material: Jurkat lysate) was below 4.52 each time. The pIC50 on TESK1 (cell material: Lysate mix) is below 4.52; on UniProt Q9NYV4 (cell material: Jurkat cells) it was 5.85; at UniProt Q9NYV4 (cell material: Jurkat lysate), below 4.52; on UniProt Q9NYV4 (cell material: Lysate mix), below 4.52; on UniProt P17612 (cell material: Jurkat cells), below 4.52; on UniProt P17612 (cell material: Jurkat lysate), below 4.52. For the same compound, the pIC50 is below 4.52 on UniProt P17612 (cell material: Lysate mix), 6.56 on ICK (cell material: Jurkat cells), 5.31 at ICK (cell material: Jurkat lysate) and 5.38 at ICK (cell material: Lysate mix).
Regarding `CCNC(=O)c1cc(Nc2cc(C3CC3)[nH]n2)nc(N2CCN(Cc3ccc(S(=O)(=O)F)cc3)CC2)n1`, the pIC50 on STK33 (cell material: Lysate mix) was 5.67; at UniProt Q96GD4 (cell material: Lysate mix), 5.94; at UniProt P49841 (cell material: Lysate mix) it was below 4.52; at UniProt Q13163 (cell material: Lysate mix) it was 5.28; at PRKCB (cell material: Lysate mix), below 4.52; on SGK3 (cell material: Lysate mix), 5.67. For the same compound, the pIC50 was below 4.52 at CDK8 (cell material: Lysate mix); below 4.52 at NLK (cell material: Lysate mix); below 4.52 on UniProt Q13233 (cell material: Lysate mix); below 4.52 on UniProt Q9Y2I7 (cell material: Lysate mix); below 4.52 on TESK1 (cell material: Lysate mix); 4.9 on UniProt Q9NYV4 (cell material: Lysate mix). Further, the pIC50 on UniProt P17612 (cell material: Lysate mix) is below 4.52; at ICK (cell material: Lysate mix), 6.46.
